# Laboratory results published in ChEMBL document CHEMBL4196120, “Inhibition of Connexin Hemichannels by New Amphiphilic Aminoglycosides without Antibiotic Activity” (ACS Med Chem Lett, 2018).
# Calls of active or inactive are those of the source. The calls are words filed in the database; no cut-off is given here.
# Columns and labels:
# [1] = tested on: HeLa; assay: Cytotoxicity against human HeLa cells assessed as reduction in cell viability up to 100 ug/ml after 24 hrs by MTT assay; format: cell-based
# [2] = molecular target: Gap junction beta-2 protein (Homo sapiens) (UniProt P29033); assay: Inhibition of recombinant human Cx26 expressed in Escherichia coli LB2003 assessed as reduction in cell growth measured after 18 hrs
# [3] = tested on: Staphylococcus aureus; assay: Toxicity against Staphylococcus aureus ATCC 25923 measured after 18 to 24 hrs; format: organism-based; conditions: in vivo
# [4] = molecular target: Gap junction beta-2 protein (Homo sapiens) (UniProt P29033); assay: Inhibition of recombinant human Cx26 expressed in Escherichia coli LB2003 assessed as reduction in cell growth at 100 uM measured after 18 hrs
# [5] = tested on: Cx26; assay: Ratio of compound effect for cytotoxicity against human HeLa cells to IC50 for recombinant human Cx26 expressed in Escherichia coli LB2003; format: toxicity
# [6] = tested on: HeLa; assay: Cytotoxicity against human HeLa cells assessed as reduction in cell viability at 100 ug/ml after 24 hrs by MTT assay relative to control; format: cell-based
SMILES,Activity [1],Imax [2],MIC [3],inhibition [4],selectivity ratio [5],Activity [6]
COc1ccc(COC[C@H]2O[C@@H](O[C@@H]3[C@@H](O)[C@H](O[C@H]4O[C@H](CN)[C@@H](O)[C@H](O)[C@H]4O)[C@@H](N)C[C@H]3N)[C@H](O)[C@@H](N)[C@@H]2OCc2ccc(OC)cc2)cc1,Non-Toxic,94%,,,,
CCCCCCCCCOC[C@H]1O[C@@H](O[C@@H]2[C@@H](O)[C@H](O[C@H]3O[C@H](CN)[C@@H](O)[C@H](O)[C@H]3O)[C@@H](N)C[C@H]2N)[C@H](O)[C@@H](N)[C@@H]1OCCCCCCCCC,Non-Toxic,99%,,,,
NC[C@H]1O[C@H](O[C@H]2[C@H](O)[C@@H](O[C@@H]3O[C@H](COCc4cccc5ccccc45)[C@@H](OCc4cccc5ccccc45)[C@H](N)[C@H]3O)[C@H](N)C[C@@H]2N)[C@H](O)[C@@H](O)[C@@H]1O,Non-Toxic,94%,64 µg/mL,,,
NC[C@H]1O[C@H](O[C@H]2[C@H](O)[C@@H](O[C@@H]3O[C@H](COCc4ccccc4)[C@@H](OCc4ccccc4)[C@H](N)[C@H]3O)[C@H](N)C[C@@H]2N)[C@H](O)[C@@H](O)[C@@H]1O,Non-Toxic,99%,,,,
CO[C@@H]1[C@@H](O[C@@H]2O[C@H](CO)[C@@H](O)[C@H](N)[C@H]2OC)[C@H](N)C[C@H](N)[C@H]1O[C@H]1O[C@H](CN)[C@@H](OC)[C@H](OC)[C@H]1OC,Non-Toxic,,,inactive,,
CCCCCCO[C@H]1[C@H](N)[C@@H](O)[C@H](O[C@@H]2[C@@H](O)[C@H](O[C@H]3O[C@H](CN)[C@@H](O)[C@H](O)[C@H]3O)[C@@H](N)C[C@H]2N)O[C@@H]1CO,Non-Toxic,99%,,,,
CCCCCCOC[C@H]1O[C@@H](O[C@@H]2[C@@H](O)[C@H](O[C@H]3O[C@H](CN)[C@@H](O)[C@H](O)[C@H]3O)[C@@H](N)C[C@H]2N)[C@H](O)[C@@H](N)[C@@H]1OCCCCCC,Non-Toxic,99%,,,,
Cc1ccc(COC[C@H]2O[C@@H](O[C@@H]3[C@@H](O)[C@H](O[C@H]4O[C@H](CN)[C@@H](O)[C@H](O)[C@H]4O)[C@@H](N)C[C@H]3N)[C@H](O)[C@@H](N)[C@@H]2OCc2ccc(C)cc2)cc1,Non-Toxic,94%,,,,
CCCCOC[C@H]1O[C@@H](O[C@@H]2[C@@H](O)[C@H](O[C@H]3O[C@H](CN)[C@@H](O)[C@H](O)[C@H]3O)[C@@H](N)C[C@H]2N)[C@H](O)[C@@H](N)[C@@H]1OCCCC,Non-Toxic,99%,,,,
NC[C@H]1O[C@H](O[C@H]2[C@H](O)[C@@H](O[C@@H]3O[C@H](COCc4ccc(Cl)cc4)[C@@H](OCc4ccc(Cl)cc4)[C@H](N)[C@H]3O)[C@H](N)C[C@@H]2N)[C@H](O)[C@@H](O)[C@@H]1O,Non-Toxic,94%,,,,
NC[C@H]1O[C@H](O[C@H]2[C@H](O)[C@@H](O[C@@H]3O[C@H](COCc4ccc5ccccc5c4)[C@@H](OCc4ccc5ccccc5c4)[C@H](N)[C@H]3O)[C@H](N)C[C@@H]2N)[C@H](O)[C@@H](O)[C@@H]1O,,94%,,,≤ 20,40 to 60%
NC[C@H]1O[C@H](O[C@H]2[C@H](O)[C@@H](O[C@@H]3O[C@H](COCc4cccc(-c5ccccc5)c4)[C@@H](OCc4cccc(-c5ccccc5)c4)[C@H](N)[C@H]3O)[C@H](N)C[C@@H]2N)[C@H](O)[C@@H](O)[C@@H]1O,,94%,16 µg/mL,,≤ 20,40 to 60%
CO[C@@H]1[C@@H](O[C@@H]2O[C@H](COCc3ccccc3)[C@@H](OCc3ccccc3)[C@H](N)[C@H]2OC)[C@H](N)C[C@H](N)[C@H]1O[C@H]1O[C@H](CN)[C@@H](OC)[C@H](OC)[C@H]1OC,Non-Toxic,99%,,,,
NC[C@H]1O[C@H](O[C@H]2[C@H](O)[C@@H](O[C@@H]3O[C@H](COCc4ccc(F)cc4)[C@@H](OCc4ccc(F)cc4)[C@H](N)[C@H]3O)[C@H](N)C[C@@H]2N)[C@H](O)[C@@H](O)[C@@H]1O,,94%,,,≤ 20,40 to 60%
CCCCCCCCOC[C@H]1O[C@@H](O[C@@H]2[C@@H](O)[C@H](O[C@H]3O[C@H](CN)[C@@H](O)[C@H](O)[C@H]3O)[C@@H](N)C[C@H]2N)[C@H](O)[C@@H](N)[C@@H]1OCCCCCCCC,Non-Toxic,99%,,,,
